Source: PMC12670408, “Backbone Alterations in Cyclic Peptides Influence Both Membrane Permeability and Biological Activity” (Journal of Medicinal Chemistry, 2025)
Read-outs that look alike come from different tables or passages of the source. Each block holds one compound with its values, some of them ahead of it. Numbered stars: 1 amine (or outer) side, 2 acyl side, 3 side chain; on linkers, the order of the positions; unused ones are H or OH. Square brackets hold non-standard residues; d marks the D form. Peptide text beside a SMILES is read from it. Ile(ψThz) = CC[C@H](C)[C@H](N[*:1])c1nc(C(=O)[*:2])cs1

Legend:
[1] = H-D exchange NMR; assay type: physicochemical; conditions: 20% D2O and 80% DMSO-d6
Source text: To further confirm the solvent accessibility of the amides we performed H-D exchange experiments using SA-A1, SA-B1, and SA-B3 by adding 20% D2O to samples dissolved in DMSO-d 6 (Table and Figures S10–S12). The rate of exchange of the amide proton for deuterium is an indicator of solvent accessibility. […] In line with their observations, the Ala-1 NH exchanges rather fast in SA-A1, which is in stark contrast to Ala-1 in SA-B1 and SA-B3 where it is fully stable. […] The Ile-4 amide is always strongly shielded which is in line with it being involved in a stable hydrogen bond with the Ala-1 carbonyl group as for SA-A1. […] Unfortunately, for SA-B3 this peak overlapped with aromatic peaks prohibiting quantification.
The samples were dissolved in DMSO-d 6 and 20% D2O was added. Immediately after ^1H NMR data was collected at 0, 10, 20, 30, and 240 min. The peak area was normalized to a peak of constant height.

[2] = system: U2OS cells; test: Cell painting assay (induction, cell count); assay type: cell-based
Protocol: Therefore, we subjected our set of compounds to the cell painting assay that is agnostic toward specific biological targets. In our cell-painting setup, the compounds were tested at different concentrations (10, 30, and 50 μM) in U2OS cells followed by treatment with dyes for mitochondria (Mito Tracker Deep Red), endoplasmic reticulum (concanavalin-Alexa488 conjugate), actin, (Phalloidin-Alexa594 conjugate), DNA (Hoechst 33342), nucleoli and cytoplasmic RNA (SYTO 14), and Golgi and plasma membranes (WGA-Alexa594 conjugate). Next, the cells were imaged in various channels at 9 sites per well and a total of 579 morphological parameters were extracted. An induction score was calculated from this analysis, which represents the number of parameters for which the change was significant in comparison to the DMSO control.
The described assay follows closely the method described by Bray et al.
Initially, 5 μL U2OS medium were added to each well of a 384-well plate (Revvity PhenoPlate 384). Subsequently, U2OS cell were seeded with a density of 1600 cells per well in 20 μL medium. The plate was incubated for 10 min at ambient temperature, followed by an additional 4 h incubation (37 °C, 5% CO2). […] Incubation with compound was performed for 20 h (37 °C, 5% CO2). Subsequently, mitochondria were stained with Mito Tracker Deep Red (Thermo Fisher Scientific, Cat. No. M22426). The Mito Tracker Deep Red stock solution (1 mM) was diluted to a final concentration of 100 nM in prewarmed medium. The medium was removed from the plate leaving 10 μL residual volume and 25 μL of the Mito Tracker solution were added to each well. The plate was incubated for 30 min in darkness (37 °C, 5% CO2). To fix the cells 7 μL of 18.5% formaldehyde in PBS were added, resulting in a final formaldehyde concentration of […]. Subsequently, the plate was incubated for another 20 min in darkness (RT) and washed three times with 70 μL of PBS. (Agilent Washer Elx405). Cells were permeabilized by addition of 25 μL 0.1% Triton X-100 to each well, followed by 15 min incubation (RT) in darkness. The cells were washed three times with PBS leaving a final volume of 10 μL. To each well 25 μL of a staining solution were added, which contains 1% BSA, 5 μL/ml Phalloidin (Alexa594 conjugate, Thermo Fisher Scientific, A12381), 25 μg/mL Concanavalin A (Alexa488 conjugate, Thermo Fisher Scientific, Cat. No. C11252), 5 μg/mL Hoechst 33342 (Sigma, Cat. No. B2261–25 mg), 1.5 μg/mL WGA-Alexa594 conjugate (Thermo Fisher Scientific, Cat. No. W11262) and 1.5 μM SYTO 14 solution (Thermo Fisher Scientific, Cat. No. S7576). The plate is incubated for 30 min (RT) in darkness and washed three times with 70 μL PBS. After the final washing step, the PBS was not aspirated. The plates were sealed and centrifuged for 1 min at 50g.
The generated images were processed with the CellProfiler package (https://cellprofiler.org/, version 3.0.0) on a computing cluster of the Max Planck Society to extract 1716 cell features per microscope site. The data was then further aggregated as medians per well (9 sites → 1 well), then over the three replicates.
From the total set of 1716 features, a subset of highly reproducible and robust features was determined using the procedure described by Woehrmann et al. in the following way: Two biological repeats of one plate containing reference compounds were analyzed. For every feature, its full profile over each whole plate was calculated.
The phenotypic profiles were compiled from the Z-scores of all individual cellular features, where the Z-score is a measure of how far away a data point is from a median value.

[3] = cited from earlier work
[4] = CHI-IAM chromatography (immobilized artificial membrane); assay type: physicochemical; conditions: IAM.PC.DD2 column, ammonium acetate buffer pH 7.4
Source text: With all peptides in hand we first set out to estimate their passive membrane permeability using the immobilized artificial membrane (IAM) chromatography technique. , An IAM column is packed with a reverse phase like material modified with phospholipids to mimic a cellular membrane. After analysis of a compound its retention time is compared to a set of calibration compounds to yield a CHI-IAM value. A higher value indicates a stronger membrane interaction, which can be correlated to passive membrane permeability.
CHI-IAM chromatography was carried out on an Agilent 1200 Series LC (Agilent Technologies, USA) equipped with a 4.6 mm × 100 mm to 150 mm IAM.PC.DD2 column from Regis Technologies, Inc., eluting at 1.5 mL/min, eluting over a gradient of 0% – 85% MeCN with a 50 mM ammonium acetate buffer adjusted to pH 7.4 over 4.75 min.

[5] = design: method as in Nielsen et al.; conditions: D2O (10%)/DMSO-d6 (90%), value in brackets, ref Nielsen et al.; cited from earlier work
[6] = Variable-temperature 1H-NMR of amide protons; assay type: physicochemical
Protocol: The solvent exposure of peptide backbone NH groups can be studied using variable temperature ^1H-NMR experiments, where the change in chemical shift of the amide protons is observed upon increasing temperature. […] These experiments were performed for compounds SA-A1, SA-B1, SA-B2, and SA-B3 in both DMSO-d6, as a mimic of a polar environment, and CDCl3, as a mimic of the hydrophobic membrane environment (Figures S2–S9, and Tables and ). […] For SA-B3 the Ile-6 amide was also more exposed to solvent, but the change in Phe-2 shift was much smaller.
Variable-temperature nuclear magnetic resonance (VT-NMR) measurements were conducted using a Bruker Avance Neo 600 (av600) spectrometer equipped with a CP2.1 TMO 600 S3 cryoprobe. The ^1H NMR data was collected over a temperature range from 293.15 to 323.15 K, with temperature increments of 5 °C.

[7] = design: method as in Fairlie group; conditions: ref Fairlie group; cited from earlier work
[8] = CDCl3, value in brackets, ref Bockus et al.
[9] = DMSO-d6, value in brackets, ref Nielsen et al.

H-D exchange rate Ala-1 [1]: 57 min
H-D exchange rate Ile-4 [1]: > 240 min
H-D exchange rate Ile-6 [1]: 341 min
H-D exchange rate Phe-2 [1]: 48 min
CHI-IAM [4]: 39.71 ± 0.16
ΔδNH/ΔT Ala-1 ([6]; CDCl3): –0.1 ppb/K
ΔδNH/ΔT Ile-4 ([6]; CDCl3): –3.5 ppb/K
ΔδNH/ΔT Ile-6 ([6]; CDCl3): –3.6 ppb/K
ΔδNH/ΔT Phe-2 ([6]; CDCl3): –10.2 ppb/K
ΔδNH/ΔT Ala-1 ([6]; DMSO-d6): –0.4 ppb/K
ΔδNH/ΔT Ile-4 ([6]; DMSO-d6): –1.7 ppb/K
ΔδNH/ΔT Ile-6 ([6]; DMSO-d6): –3.8 ppb/K
ΔδNH/ΔT Phe-2 ([6]; DMSO-d6): –4.2 ppb/K
SMILES: CC[C@H](C)[C@@H]1NC(=O)[C@@H]2CCCN2C(=O)[C@H](Cc2ccccc2)NC(=O)[C@H](C)NC(=O)c2csc(n2)[C@H]([C@@H](C)CC)NC(=O)[C@@H]2CCCN2C1=O [SA-A1, Sanguinamide A] (cyclo(AFPIP[Ile(ψThz)]))
Cell count at 10 μM [2]: 103%
Induction at 10 μM [2]: 1.4%
Cell count at 30 μM [2]: 97%
Induction at 30 μM [2]: 32.6%
Cell count at 50 μM [2]: 88%
Induction at 50 μM [2]: 29.7%
ΔδNH/ΔT Ala-1 [3, 8]: 0.1 ppb/K
ΔδNH/ΔT Ile-4 [3, 8]: −3.1 ppb/K
ΔδNH/ΔT Ile-6 [3, 8]: −3.1 ppb/K
ΔδNH/ΔT Phe-2 [3, 8]: −9.1 ppb/K
ΔδNH/ΔT Ala-1 [3, 9]: 0.4 ppb/K
ΔδNH/ΔT Ile-4 [3, 9]: −1.5 ppb/K
ΔδNH/ΔT Ile-6 [3, 9]: −4.0 ppb/K
ΔδNH/ΔT Phe-2 [3, 9]: −4.2 ppb/K
H-D exchange rate Ala-1 [5]: 188 min
H-D exchange rate Ile-4 [5]: 6000 min
H-D exchange rate Ile-6 [5]: 1500 min
H-D exchange rate Phe-2 [5]: 380 min
bioavailability (F) [7]: 7%

CHI-IAM [4]: 33.97 ± 0.13
SMILES: CC[C@H](C)[C@@H]1NC(=O)[C@@H]2CCCN2C(=O)[C@H]([C@@H](C)CC)NC(=O)[C@@H]2CCCN2C(=O)[C@H](Cc2ccccc2)NC(=O)[C@H](C)NC(=O)[C@H](CS)NC1=O [SA-A3] (cyclo(AFPIPIC))
Cell count at 10 μM [2]: 102%
Induction at 10 μM [2]: 0.7%
Cell count at 30 μM [2]: 102%
Induction at 30 μM [2]: 1%
Cell count at 50 μM [2]: 98%
Induction at 50 μM [2]: 1%
